The values below come from PubChem BioAssay (NCI).

Values joined by “and” are separate entries in the source; they are usually repeats but may differ in a detail not shown here. Identical values can stand only once.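 Exposure lasted 48 hours, with cells grown in 96-well plates and compounds tested at five concentrations. GI50 is the concentration that inhibits growth by half. TGI: total growth inhibition.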

Some test systems named below: CCRF-CEM leukemia; A498 renal; SF-539 CNS; NCI-H522 lung; SF-268 CNS; IGROV1 ovarian; LOX IMVI melanoma; 786-0 renal; KM12 colon; SR leukemia.
Common to all, as to test: NCI anticancer screen, dose series, 48 h

Take `COc1cc(-c2cc(C(=O)N3CCN(C(=O)c4ccccc4NCc4ccco4)CC3)nc3cc(-c4ccccc4)nn23)cc(OC)c1OC`: the GI50 with CCRF-CEM leukemia is 4.57 µM; with A498 renal it was 3.02 µM; in the test with SF-539 CNS, 3.11 µM; in the test on NCI-H522 lung, 0.859 µM; with SF-268 CNS, 4.38 µM; in the test with IGROV1 ovarian it was 5.44 µM. Moreover, the GI50 was 4.01 µM in the test on LOX IMVI melanoma, 4.55 µM in the test with 786-0 renal, 0.878 µM in the test on KM12 colon and 0.523 µM with SR leukemia. Further, the TGI was above 100 µM in the test with CCRF-CEM leukemia; above 28.4 µM in the test with A498 renal; above 26 µM with SF-539 CNS; above 26.5 µM in the test with NCI-H522 lung; above 100 µM in the test with SF-268 CNS; above 100 µM in the test on IGROV1 ovarian. Besides, the TGI in the test with LOX IMVI melanoma, in the test on 786-0 renal, in the test on KM12 colon and in the test with SR leukemia was above 100 µM each time.
With `O=S(=O)(c1ccc(NC(=S)N/N=C/c2ccccc2O)cc1)N1CCCCC1`, the TGI is 1.66 µM in the test on CCRF-CEM leukemia; 27.9 µM in the test on A498 renal; above 40.9 µM in the test with SF-539 CNS; above 57.5 µM with NCI-H522 lung; 6.9 µM in the test with SF-268 CNS; above 50.4 µM in the test with IGROV1 ovarian. For the same compound, the TGI amounted to 0.109 µM in the test on LOX IMVI melanoma, 4.34 µM in the test with 786-0 renal, 12.9 µM with KM12 colon and 3.58 µM in the test on SR leukemia.
Consider `Nc1cccc2c1C(=O)N(C1CCC(=O)NC1=O)C2=O` (stereo not given), for which the GI50 in the test with CCRF-CEM leukemia, with A498 renal, in the test with SF-539 CNS, with NCI-H522 lung, with SF-268 CNS and with IGROV1 ovarian was above 100 µM in each case. Moreover, the GI50 with LOX IMVI melanoma, with 786-0 renal, in the test on KM12 colon and with SR leukemia was above 100 µM in each case. The TGI in the test on CCRF-CEM leukemia, with A498 renal, in the test on SF-539 CNS, with NCI-H522 lung, with SF-268 CNS and in the test with IGROV1 ovarian was above 100 µM throughout. Also, the TGI in the test on LOX IMVI melanoma, in the test with 786-0 renal, in the test with KM12 colon and in the test with SR leukemia was above 100 µM each time.
With `COc1cccc(NC(=O)c2sc3nc4c(cc3c2N)CCCC4)c1`, the GI50 with CCRF-CEM leukemia was 0.347 µM; with A498 renal, 0.349 µM; in the test with SF-539 CNS, 0.368 µM; in the test with NCI-H522 lung, 0.806 µM; with SF-268 CNS, 0.714 µM; in the test on IGROV1 ovarian it was 4.1 µM. For the same compound, the GI50 is 0.729 µM with LOX IMVI melanoma, 0.42 µM in the test on 786-0 renal, 0.414 µM in the test on KM12 colon and 0.217 µM with SR leukemia. Besides, the TGI was 19.2 µM in the test on CCRF-CEM leukemia; 14.2 µM in the test with A498 renal; 12.8 µM in the test with SF-539 CNS; above 100 µM in the test on NCI-H522 lung; 37 µM with SF-268 CNS; above 100 µM in the test with IGROV1 ovarian. For the same compound, the TGI is above 100 µM in the test with LOX IMVI melanoma, 19.2 µM in the test with 786-0 renal, above 100 µM in the test with KM12 colon and 12.7 µM with SR leukemia.
In the case of `N[C@H]1C2C3CC4C5CC(C42)C1(c1ccccc1)C53` (stereo not given in full), the TGI in the test on CCRF-CEM leukemia, in the test with A498 renal, with SF-539 CNS, with NCI-H522 lung, with SF-268 CNS and in the test with IGROV1 ovarian was above 100 µM each time. Further, the TGI in the test on LOX IMVI melanoma, with 786-0 renal, with KM12 colon and in the test with SR leukemia was above 100 µM each time.
Turning to `COc1cc(CCc2cc(NC(=O)c3ccc(N4C[C@@H](C)N[C@@H](C)C4)cc3)n[nH]2)cc(OC)c1`, the GI50 in the test with CCRF-CEM leukemia is > 10 µM and 3.69 µM; in the test with A498 renal, 0.014 µM and < 0.0107 µM; with SF-539 CNS, 6.6 µM and 4.08 µM; with NCI-H522 lung, > 10 µM and 9.95 µM; in the test with SF-268 CNS, > 10 µM and 5.88 µM; in the test with IGROV1 ovarian, 2.93 µM and 4.59 µM. The GI50 is 2.93 µM and 2.66 µM in the test on LOX IMVI melanoma; > 10 µM and 6.16 µM in the test with 786-0 renal; 0.0759 µM and 0.107 µM in the test on KM12 colon; 3.75 µM and 2.34 µM with SR leukemia. Moreover, the TGI in the test with CCRF-CEM leukemia is > 10 µM and 18.3 µM; in the test with A498 renal, 0.0838 µM and 0.12 µM; in the test with SF-539 CNS, > 10 µM and 15.1 µM; with NCI-H522 lung, > 10 µM and 24.5 µM; in the test on SF-268 CNS it was > 10 µM and 20.7 µM; in the test with IGROV1 ovarian, > 10 µM and 19.8 µM. Moreover, the TGI with LOX IMVI melanoma is > 10 µM and 10.3 µM; with 786-0 renal, > 10 µM and 20.4 µM; in the test on KM12 colon, > 10 µM and 11 µM; in the test on SR leukemia, > 10 µM and 5.42 µM.
On to `COc1cc(O)c(C(=O)/C=C/c2ccccc2)c(OC)c1`, for which the TGI with CCRF-CEM leukemia was 7.22 µM; in the test with A498 renal, 16.5 µM; in the test with SF-539 CNS, 12.8 µM; with NCI-H522 lung, 12.1 µM; with SF-268 CNS, 20.8 µM; in the test on IGROV1 ovarian it was 17.4 µM. Also, the TGI in the test with LOX IMVI melanoma worked out at 6.36 µM; with 786-0 renal it was 21.6 µM; in the test with KM12 colon it was 13.6 µM; with SR leukemia, 6.05 µM.
